Reference: publication PMC8511295 (European journal of medicinal chemistry, 2021)
Read-outs that look alike come from different tables or passages of the source.

Legend:
[1] = system: HIV-1 NL4–3-HXB2-Luc pseudotyped virus expressing Env of the lab-adapted HIV-1HXB-2 (CXCR4); format: cell-based; conditions: TZM-bl cells
[2] = biological target: HIV-1 Reverse Transcriptase (RT) (Human immunodeficiency virus type 1 group M subtype B, UniProt P04585); test: Colorimetric Reverse Transcriptase Assay; format: biochemical
[3] = system: HIV-1WEAUd15.410.5017 (NIH # 11578), dual-tropic (CCR5/CXCR4) clinical isolate of subtype B; format: cell-based
in vitro = conditions: human
[4] = system: control pseudovirus MLV-GP/VSV-G/Luc; test: microbe, parasite or virus in culture; format: cell-based
[5] = system: recombinant CD4-dependent HIV-1ADA virus in CD4-negative Cf2Th-CCR5 cells; format: cell-based; conditions: escalating concentrations

Row | SMILES | antiviral activity against HIV-1HXB-2, in words [1] | further results
1 | Cl.Cl.NC[C@@H](NC(=O)CNCc1ccc(Cl)cc1)c1ncc(CO)s1 [4(fR), N-(2-amino-1-(5-(hydroxymethyl)thiazol-2-yl)ethyl)-2-((4-chlorobenzyl)amino)acetamide dihydrochloride] | None of these derivatives showed any appreciable antiviral activity | 
2 | Cl.Cl.NC[C@H](NC(=O)CNCc1ccc(Cl)cc1)c1ncc(CO)s1 [4(fS), N-(2-amino-1-(5-(hydroxymethyl)thiazol-2-yl)ethyl)-2-((4-chlorobenzyl)amino)acetamide dihydrochloride] | None of these derivatives showed any appreciable antiviral activity | 
3 | NC[C@@H](NC(=O)c1ccc(C2CCCCC2)[nH]1)c1ncc(CO)s1 [6(fR), N-(2-amino-1-(5-(hydroxymethyl)thiazol-2-yl)ethyl)-5-cyclohexyl-1H-pyrrole-2-carboxamide] | poorly actives | 
4 | NC[C@H](NC(=O)c1ccc(C2CCCCC2)[nH]1)c1ncc(CO)s1 [6(fS), N-(2-amino-1-(5-(hydroxymethyl)thiazol-2-yl)ethyl)-5-cyclohexyl-1H-pyrrole-2-carboxamide] | poorly actives | 
5 | NC[C@@H](NC(=O)c1ccc(OCC2CCCCC2)cc1)c1ncc(CO)s1 [7(fR), N-(2-amino-1-(5-(hydroxymethyl)thiazol-2-yl)ethyl)-4-(cyclohexylmethoxy)benzamide] | poorly active | 
6 | NC[C@H](NC(=O)c1ccc(OCC2CCCCC2)cc1)c1ncc(CO)s1 [7(fS), N-(2-amino-1-(5-(hydroxymethyl)thiazol-2-yl)ethyl)-4-(cyclohexylmethoxy)benzamide] | poorly active | 
7 | NC[C@@H](NC(=O)c1ccc(NCC2CCCCC2)cc1)c1ncc(CO)s1 [8(fR), N-(2-amino-1-(5-(hydroxymethyl)thiazol-2-yl)ethyl)-4-((cyclohexylmethyl)amino)benzamide] | poorly active | 
8 | NC[C@H](NC(=O)c1ccc(NCC2CCCCC2)cc1)c1ncc(CO)s1 [8(fS), N-(2-amino-1-(5-(hydroxymethyl)thiazol-2-yl)ethyl)-4-((cyclohexylmethyl)amino)benzamide] | poorly active | 
9 | NC[C@@H](NC(=O)Cc1ccc(OCC2CCCCC2)cc1)c1ncc(CO)s1 [9(fR), N-(2-amino-1-(5-(hydroxymethyl)thiazol-2-yl)ethyl)-2-(4-(cyclohexylmethoxy)phenyl)acetamide] | no significant antiviral activity | 
10 | NC[C@H](NC(=O)Cc1ccc(OCC2CCCCC2)cc1)c1ncc(CO)s1 [9(fS), N-(2-amino-1-(5-(hydroxymethyl)thiazol-2-yl)ethyl)-2-(4-(cyclohexylmethoxy)phenyl)acetamide] | no significant antiviral activity | 
11 | NCC(NC(=O)c1cc2ccc(Cl)cc2[nH]1)c1nc(CO)cs1 [12(fR), N-(2-amino-1-(4-(hydroxymethyl)thiazol-2-yl)ethyl)-6-chloro-1H-indole-2-carboxamide] |  | activity against HIV-1 RT, in words [2]: no activity; antiviral activity against the clinical isolate HIV-1WEAUd15.410.5017, in words [3]: best antiviral activity; CC50 (in vitro): 83 to 84 µM; activity against control pseudovirus VSV-G, in words [4]: poorly active against VSV-G; IC50 ([4]; Pseudovirus, U87/CD4/CCR5, read-out: IC50 against VSV-G): 15.7 ± 1 µM
12 | NCC(NC(=O)c1cc2ccc(Cl)cc2[nH]1)c1nc(CO)cs1 [12(fS), N-(2-amino-1-(4-(hydroxymethyl)thiazol-2-yl)ethyl)-6-chloro-1H-indole-2-carboxamide] |  | antiviral activity against the clinical isolate HIV-1WEAUd15.410.5017, in words [3]: best antiviral activity; activity against control pseudovirus VSV-G, in words [4]: poorly active against VSV-G; IC50 ([4]; read-out: IC50 against VSV-G): 20.5 ± 0.5 µM
13 | NCC(NC(=O)c1ccc(-c2ccc(Cl)cc2)[nH]1)c1nccs1 [13(fR), N-(2-amino-1-(thiazol-2-yl)ethyl)-5-(4-chlorophenyl)-1H-pyrrole-2-carboxamide] |  | antiviral activity against the clinical isolate HIV-1WEAUd15.410.5017, in words [3]: best antiviral activity; activity against control pseudovirus VSV-G, in words [4]: poorly active against VSV-G
14 | NCC(NC(=O)c1ccc(-c2ccc(Cl)cc2)[nH]1)c1nccs1 [13(fS), N-(2-amino-1-(thiazol-2-yl)ethyl)-5-(4-chlorophenyl)-1H-pyrrole-2-carboxamide] |  | antiviral activity against the clinical isolate HIV-1WEAUd15.410.5017, in words [3]: best antiviral activity; activity against control pseudovirus VSV-G, in words [4]: poorly active against VSV-G
15 | O=C(N[C@H](CC1CCNCC1)c1nc(CO)cs1)c1ccc(-c2ccc(C(F)(F)F)cc2)[nH]1 [18(fR), N-(1-(4-(hydroxymethyl)thiazol-2-yl)-2-(piperidin-4-yl)ethyl)-5-(4-(trifluoromethyl)phenyl)-1H-pyrrole-2-carboxamide] | low antiviral activity | 
16 | O=C(N[C@@H](CC1CCNCC1)c1nc(CO)cs1)c1ccc(-c2ccc(C(F)(F)F)cc2)[nH]1 [18(fS), N-(1-(4-(hydroxymethyl)thiazol-2-yl)-2-(piperidin-4-yl)ethyl)-5-(4-(trifluoromethyl)phenyl)-1H-pyrrole-2-carboxamide] | low antiviral activity | 
17 | CC1(C)CC(NC(=O)C(=O)Nc2ccc(Cl)cc2)CC(C)(C)N1 [NBD-556, reference compound] |  | activity against HIV-1 RT, in words [2]: no activity; relative virus infectivity (enhancement of infection), in words [5]: enhanced the infection of the Cf2Th-CCR5 cells in a dose-dependent manner
18 | Cc1cc(-c2ccc(C(F)(F)F)cn2)[nH]c1C(=O)NC(CN)c1ncc(CO)s1 (stereo not shown) [NBD-14270] |  | relative virus infectivity (enhancement of infection), in words [5]: did not enhance HIV-1 infectivity
19 | NCC(NC(=O)C(=O)NCc1ccc(Cl)c(F)c1)c1ncc(CO)s1 (stereo not shown) [compound 3, N’-[2-amino-1-[5-(hydroxymethyl)thiazol-2-yl]ethyl]-N-[(4-chloro-3-fluorophenyl)methyl]oxamide] | failed to show any significant antiviral activity | 
20 | Cc1nc(C(CN)NC(=O)NC(=O)c2ccc(Cl)cc2)sc1CO (stereo not shown) [compound 5, N-((2-amino-1-(5-(hydroxymethyl)-4-methylthiazol-2-yl)ethyl)carbamoyl)-4-chlorobenzamide] | failed to show any significant antiviral activity | 
21 | Cc1nc(C(CN)NC(=O)c2cc3ccccc3[nH]2)sc1CO (stereo not shown) [compound 10, N-(2-amino-1-(5-(hydroxymethyl)-4-methylthiazol-2-yl)ethyl)-1H-indole-2-carboxamide] | virtually inactive | 
22 | Cc1nc(C(CN)NC(=O)c2cc3cc(Cl)ccc3[nH]2)sc1CO (stereo not shown) [compound 11, N-(2-amino-1-(5-(hydroxymethyl)-4-methylthiazol-2-yl)ethyl)-5-chloro-1H-indole-2-carboxamide] | virtually inactive | 
23 | NCC(NC(=O)c1cc2ccc(Cl)cc2[nH]1)c1nc(CO)cs1 (stereo not shown) [compound 12, N-(2-amino-1-(4-(hydroxymethyl)thiazol-2-yl)ethyl)-6-chloro-1H-indole-2-carboxamide] | moderate activity | 
24 | Cl.NCCNC(=O)c1ccc(-c2ccc(Cl)c(F)c2)[nH]1 [compound 14, N-(2-aminoethyl)-5-(4-chloro-3-fluorophenyl)-1H-pyrrole-2-carboxamide hydrochloride] | low μM range | 
25 | O=C(NC1(c2nc(CO)cs2)CCNCC1)c1ccc(-c2ccc(C(F)(F)F)cc2)[nH]1 [compound 17, N-(4-(4-(hydroxymethyl)thiazol-2-yl)piperidin-4-yl)-5-(4-(trifluoromethyl)phenyl)-1H-pyrrole-2-carboxamide] |  | antiviral activity against the clinical isolate HIV-1WEAUd15.410.5017, in words [3]: best antiviral activity
